Reference: patent publication US20030073837A1, “3-HETEROARYLIDENYL-2-INDOLINONE COMPOUNDS FOR MODULATING PROTEIN KINASE ACTIVITY AND FOR USE IN CANCER CHEMOTHERAPY” (priority 1998, published 2003)
Where two headings read alike, the source gives them in different places.

Key:
human melanoma cells = test: Dose response study, human melanoma cells subcutaneous in athymic mice; format: in vivo; conditions: daily administration, doses as low as 1 mg/kg/day
Description: (§1) The ability of human tumors to grow as xenografts in athymic mice (e.g., Balb/c, nu/nu) provides a useful in vivo model for studying the biological response to therapies for human tumors. Since the first successful xenotransplantation of human tumors into athymic mice, (Rygaard and Povlsen, 1969, Acta Pathol. Microbial. Scand. 77:758-760), many different human tumor cell lines (e.g., mammary, lung, genitourinary, gastrointestinal, head and neck, glioblastoma, bone, and malignant melanomas) have been transplanted and successfully grown in nude mice. The following assays may be used to determine the level of activity, specificity and effect of the different compounds of the present invention. […]
(§2) Cell lines are grown in appropriate medium (for example, MEM, DMEM, Ham's F10, or Ham's F12 plus 5%-10% fetal bovine serum (FBS) and 2 mM glutamine (GLN)). […] All cell lines are routinely subcultured twice a week and are negative for mycoplasma as determined by the Mycotect method (Gibco).
(§3) Cells are harvested at or near confluency with 0.05% Trypsin-EDTA and pelleted at 450×g for 10 min. […] Tumor growth is measured over 3 to 6 weeks using venier calipers. Tumor volumes are calculated as a product of length×width×height unless otherwise indicated. P values are calculated using the Students t-test. […]

[1] = In vivo intravenous pharmacokinetics, dogs
[2] = tested on: a variety of tumor cell lines; test: Direct inhibitory effect on tumor cell lines in vitro; format: cell-based; conditions: concentrations up to 50 μM
[3] = tested on: tumor cells implanted under the serosa of the colon; test: Tumor cells surgically implanted under the serosa of the colon; format: in vivo, mice
Procedure: 8 week old nude mice (female) (Simonsen Inc.) are used as experimental animals. Implantation of tumor cells can be performed in a laminar flow hood. For anesthesia, Xylazine/Ketamine Cocktail (100 mg/kg ketamine and 5 mg/kg Xylazine) are administered intraperitoneally. A midline incision is done to expose the abdominal cavity (approximately 1.5 cm in length) to inject 10^7 tumor cells in a volume of 100 μl medium. The cells are injected either into the duodenal lobe of the pancreas or under the serosa of the colon. The peritoneum and muscles are closed with a 6-0 silk continuous suture and the skin is closed by using wound clips. Animals are observed daily.
After 2-6 weeks, depending on gross observations of the animals, the mice are sacrificed, and the local tumor metastases to various organs (lung, liver, brain, stomach, spleen, heart, muscle) are excised and analyzed (measurement of tumor size, grade of invasion, immunochemistry, in situ hybridization determination, etc.).

[4] = Phase 1 study pharmacokinetics in patients with advanced malignancies; conditions: for half-life: plasma, intravenous
[5] = Subchronic toxicokinetic study (28 day toxicity study), rats; format: in vivo
[6] = tested on: ATP binding site of the receptor tyrosine kinase; test: Washout experiments in vitro
[7] = Whole body autoradiography and excretion after intravenous injection; format: in vivo; conditions: in 24 hours, 14C-labeled
tumor growth = test: Less frequent intraperitoneal dosing studies in athymic mice; format: in vivo; conditions: for tumor growth inhibition: intraperitoneal
Description: as §1, with “invention. Three general types of assays are useful for evaluating compounds: cellular/catalytic, cellular/biological and in vivo. The object of the cellular/catalytic assays is to determine the effect of a compound on the ability of a TK to phosphorylate tyrosines on a known substrate in a cell. The object of the cellular/biological assays is to determine the effect of a compound on the biological response stimulated by a TK in a cell. The object of the in vivo assays is to determine the effect of a compound in an animal model of a particular disorder such as cancer.” for “invention.”
as §2, §3

[8] = In vivo intravenous pharmacokinetics, mice
[9] = tested on: β-450 liver enzymes (CYP1A2 and CYP3A4); test: In vitro metabolism studies; format: in vitro ADME
FLK-1 receptor = test: Cellular-based assay of receptor phosphorylation following VEGF (FLK-1 ELISA); format: cell-based
[10] = tested on: endothelial cells induced by VEGF; test: In vitro proliferation of endothelial cells induced by VEGF (HUV-EC-C assay); format: cell-based, human
Procedure: The following protocol may also be used to measure a compound's activity against PDGF-R, FGF-R, VEGF, aFGF or Flk-1/KDR, all of which are naturally expressed by HUV-EC cells.
1. Wash and trypsinize HUV-EC-C cells (human umbilical vein endothelial cells, (American Type Culture Collection; catalogue no. 1730 CRL). Wash with Dulbecco's phosphate-buffered saline (D-PBS; obtained from Gibco BRL; catalogue no. 14190-029) 2 times at about 1 ml/10 cm^2 of tissue culture flask. Trypsinize with 0.05% trypsin-EDTA in non-enzymatic cell dissociation solution (Sigma Chemical Company; catalogue no. C-1544). The 0.05% trypsin is made by diluting 0.25% trypsin/1 mM EDTA (Gibco; catalogue no. 25200-049) in the cell dissociation solution. Trypsinize with about 1 ml/25-30 cm^2 of tissue culture flask for about 5 minutes at 37° C. After cells have detached from the flask, add an equal volume of assay medium and transfer to a 50 ml sterile centrifuge tube (Fisher Scientific; catalogue no. 05-539-6).
2. Wash the cells with about 35 ml assay medium in the 50 ml sterile centrifuge tube by adding the assay medium, centrifuge for 10 minutes at approximately 200×g, aspirate the supernatant, and resuspend with 35 ml D-PBS. Repeat the wash two more times with D-PBS, resuspend the cells in about 1 ml assay medium/15 cm^2 of tissue culture flask. […]

[11] = In vivo intravenous pharmacokinetics, rats
[12] = Phase I dose escalation studies, toxicity; format: in vivo; conditions: patients treated with up to 52 weeks of treatment
[13] = tested on: a variety of tumor cell lines subcutaneously implanted; test: Subcutaneous tumor implants in immunocompromised mice; format: in vivo
Description: as §1, §2, §3

[14] = Subchronic toxicokinetic study (28 day toxicity study), dogs; format: in vivo
[15] = tested on: advanced metastatic colorectal cancer; conditions: cited from earlier work
[16] = cited from earlier work
[17] = tested on: metastatic colorectal cancer; conditions: single agent; cited from earlier work

Q: With Cc1cc(C)c(/C=C2\C(=O)Nc3ccccc32)[nH]1 [3-[(2,4-dimethylpyrrol-5-yl)methylidenyl]-2-indolinone] as the compound, how does the “inhibition of human melanoma cells” value (human melanoma cells) read?
A: The value was “dose-dependent inhibition”.

Q: And the “elimination of the parent compound from the circulation” value (shortened to “elimination of the parent compound”) [1]?
A: The value was “rapid elimination”.

Q: What about the “direct inhibitory effects on tumor cell lines” value [2] of the same compound?
A: Its value is “no direct inhibitory effects”.

Q: And the “growth of tumor cells implanted under the serosa of the colon” value ([3]; daily administration 25 mg/kg/day)?
A: The value was “significantly inhibit the growth”.

Q: And the tumor vascularization ([3]; pale appearance of tumors in treated animals)?
A: The tumor vascularization was “decreased vascularization”.

Q: What about the “increase of the rate of clearance” value ([4]; after eight infusions, all patients) of the same compound?
A: Its value is 50-300%.

Q: And the total distributive volume ([4]; calculated by a one-compartment model)?
A: The total distributive volume was 53.6 ± 11.3 L.

Q: And the clearance versus dose ([4]; doses 4.4-190 mg/m^2)?
A: The clearance versus dose was “independent of dose”.

Q: And the “AUC and CMAX versus dose” value ([4]; doses tested in humans to date)?
A: Its value is “increase linearly with dose”.

Q: What about the “individual clearance calculated based on BSA” value ([4]; human, in vivo) of the same compound?
A: Its value is 41.8±22.1 L/hour/m2.

Q: What about the half-life ([4]; human, alpha half-life, mean, doses 4.4-190 mg/m^2) of the same compound?
A: The half-life was 5.8 ± 1.9 min.

Q: What about the half-life ([4]; human, beta half-life or elimination phase, mean, doses 4.4-190 mg/m^2) of the same compound?
A: The half-life was 43.4 ± 21.9 min.

Q: And the half-life ([4]; human, beta half-life or elimination phase, range, doses 4.4-190 mg/m^2)?
A: Its half-life is 10 to 111 min.

Q: What about the half-life ([4]; human, half-life in humans, doses 4.4-190 mg/m^2, preliminary) of the same compound?
A: Its half-life is ~60 min.

Q: And the “accumulation in plasma upon repeated administration” value [5]?
A: Its value is “did not accumulate in plasma”.

Q: What about the target half-life [6] of the same compound?
A: The target half-life was 96 h.

Q: And the excreted in feces [7]?
A: The excreted in feces was 72%.

Q: What about the excreted in urine [7] of the same compound?
A: The excreted in urine was 16%.

Q: And the total dose recovered [7]?
A: Its total dose recovered is 92 % of the total administered dose.

Q: What about the “tumor growth inhibition and toxicity with interval dosing” value (tumor growth; dosing at 3 to 4 day intervals) of the same compound?
A: Its value is “sufficient to inhibit tumor growth without toxicity”.

Q: What about the tumor growth inhibition (tumor growth; daily dosing) of the same compound?
A: Its tumor growth inhibition is 68%.

Q: And the tumor growth inhibition (tumor growth; twice weekly dosing for four weeks)?
A: The tumor growth inhibition was 77%.

Q: What about the “elimination of the parent compound” value [8] of the same compound?
A: Its value is “rapid elimination”.

Q: What about the metabolizing enzymes [9] of the same compound?
A: The metabolizing enzymes was “metabolized via β-450 liver enzymes, most probably via CYP1A2 and CYP3A4”.

Q: What about the “receptor phosphorylation that follows the interaction of VEGF with its receptor” value (FLK-1 receptor) of the same compound?
A: The value was “inhibit the receptor phosphorylation”.

Q: What about the IC50 ([10]; Homo sapiens, Endothelial cell, read-out: IC50, inhibition of in vitro proliferation of endothelial cells induced by VEGF) of the same compound?
A: Its IC50 is ~70 nM.

Q: And the “exposure to drug after which detectable activity is first observed” value ([10]; time-dependent increase in potency)?
A: The value was 5 min.

Q: And the “elimination of the parent compound” value ([11]; intravenous)?
A: Its value is “rapid elimination”.

Q: What about the “elimination half-life versus dose” value ([11]; intravenous 29.5-97.9 mg/m^2) of the same compound?
A: Its value is “linearly increases as the dose increased”.

Q: What about the “increase of AUC” value ([11]; intravenous 29.5-97.9 mg/m^2, with a 3-fold increase in dose) of the same compound?
A: Its value is 10 fold.

Q: And the cumulative toxicity [12]?
A: The cumulative toxicity was “no cumulative toxicity was observed”.

Q: And the “suppression of tumor growth with delayed administration” value ([13]; administration delayed until tumors approximately 50 mm^3, versus start on Day 1)?
A: The value was “equivalent efficacy”.

Q: What about the “inhibition of tumor growth” value ([13]; daily intraperitoneal dosing 12.5-25 mg/kg/day for 28 days) of the same compound?
A: The value was 30-80%.

Q: And the “accumulation in plasma upon repeated administration” value [14]?
A: Its value is “did not accumulate in plasma”.

Q: Which results are given for O=c1[nH]cc(F)c(=O)[nH]1 [fluorouracil, 5-fluoro-2,4 (1H,3H)-pyrimidinedione]?
A: median survival time ([15]; fluorouracil alone 500 mg/m^2): 7.7 months; response rate ([15]; fluorouracil alone 500 mg/m^2 daily for 5 days every 28-35 days): 10%; excreted in urine ([16]; in vivo): Less than 10%; plasma levels ([16]; within 2 hours, intravenous bolus 370 to 720 mg/m^2): below 1 μM; median survival [17]: six; response rate [17]: about 15%
